pIC50: −log10 of the molar value.
Each molecule was assayed against T1, HIV-integrase (Human immunodeficiency virus type 1 group M subtype B, UniProt P12497) (assay: HIV-Integrase Inhibition Activity (SPA strand transfer assay)). Settings: recombinant integrase, biotin labeled substrate DNA on SPA beads, P33 labeled target DNA.
T1 construct: Recombinant integrase (0.26 ng) was incubated with the beads
Type: biochemical
Procedure: HIV-Integrase Inhibition Activity. To evaluate in-vitro activity against HIV-integrase, 5 pmole of biotin labeled substrate DNA was bound to 100 μg of Streptavidin coated PVT SPA beads (Amersham Pharmacia Biotech). Recombinant integrase (0.26 ng) was incubated with the beads for 90 min at 37° C. Unbound enzyme was removed by washing the complex followed by addition of inhibitors and 0.1 fmol of P33 labeled target DNA. The reaction was stopped by adding EDTA to a final concentration of 10 mM. Samples were counted in TopCountNXT (Packard) and the CPM was used as a measure of integration. The reaction condition was as described in A. Engleman and R. Craige, J. Virol. 69, 5908-5911 (1995). The sequences of substrate and target DNA were described in Nucleic Acid Research 22, 1121-1122 (1994). Activity equal to A refers to a compound having IC50=0.002 to 0.10 μM while B and C denote compounds having IC50=0.1 to 1.0 μM and IC50≧1.0 μM respectively.

Row | Compound | pIC50
1 | COC(C)(C)c1nc(C(=O)NCc2ccc(F)c(C)c2)c(O)c(=O)n1C [Example 2] | 7.00 to 8.70
2 | COCCOC1(c2nc(C(=O)NCc3ccc(F)cc3S(=O)(=O)N(C)C)c(O)c(=O)n2C)CCC1 [Example 18] | 7.00 to 8.70
3 | COC(C)(C)c1nc(C(=O)NCc2ccc(F)cc2)c(O)c(=O)n1C [Example 1, N-(4-Fluorobenzyl)-5-hydroxy-2-(2-methoxypropan-2-yl)-1-methyl-6-oxo-1,6-dihydropyrimidine-4-carboxamide] | 7.00 to 8.70
4 | Cn1c(C2(C)CCCO2)nc(C(=O)NCc2ccc(F)cc2S(C)(=O)=O)c(O)c1=O (stereo not drawn) [Example 11] | 7.00 to 8.70
5 | CSCCCCC(C)(C)c1nc(C(=O)NCc2ccc(F)cc2)c(O)c(=O)n1C [Example 5] | 7.00 to 8.70
6 | Cn1c(C2(C)CCCO2)nc(C(=O)NCc2ccc(F)cc2)c(O)c1=O (stereo not drawn) [Example 9] | 7.00 to 8.70
7 | Cn1c(C2(OCCO)CCC2)nc(C(=O)NCc2ccc(F)cc2)c(O)c1=O [Example 12, 5-Hydroxy-2-[1-(2-hydroxy-ethoxy)-cyclobutyl]-1-methyl-6-oxo-1,6-dihydro-pyrimidine-4-carboxylic acid 4-fluoro-benzylamide] | 7.00 to 8.70
8 | COCCOC1(c2nc(C(=O)NCc3ccc(F)cc3-n3cncn3)c(O)c(=O)n2C)CCC1 [Example 16, N-(4-Fluoro-2-(1H-1,2,4-triazol-1-yl)benzyl)-5-hydroxy-2-(1-(2-methoxyethoxy)cyclobut-yl)-1-methyl-6-oxo-1,6-dihydropyrimidine-4-carboxamide] | 7.00 to 8.70
9 | Cn1c(C(C)(C)C)nc(C(=O)NCc2ccc(F)cc2)c(O)c1=O [Example 4, 2-tert-Butyl-5-hydroxy-1-methyl-6-oxo-1,6-dihydro-pyrimidine-4-carboxylic acid 4-fluoro-benzylamide] | 7.00 to 8.70
10 | CC(C)(C)c1nc(O)c(O)c(C(=O)NCc2ccc(F)cc2)n1 [Example 3, 2-tert-Butyl-5-hydroxy-6-oxo-1,6-dihydro-pyrimidine-4-carboxylic acid 4-fluoro-benzylamide] | 7.00 to 8.70
11 | Cn1c(C2(C)CCCO2)nc(C(=O)NCc2ccc(F)cc2-n2cncn2)c(O)c1=O (stereo not drawn) [Example 10] | 7.00 to 8.70
12 | COCCOC1(c2nc(C(=O)NCc3ccc(F)cc3)c(O)c(=O)n2C)CCC1 [Example 15, N-(4-Fluorobenzyl)-5-hydroxy-2-(1-(2-methoxyethoxy)cyclobutyl)-1-methyl-6-oxo-1,6-dihydropyrimidine-4-carboxamide] | 7.00 to 8.70
13 | Cn1c(C2(C)CCCS2)nc(C(=O)NCc2ccc(F)cc2S(C)(=O)=O)c(O)c1=O (stereo not drawn) [Example 8] | 7.00 to 8.70
14 | CSCCOC1(c2nc(C(=O)NCc3ccc(F)cc3-n3cncn3)c(O)c(=O)n2C)CCC1 [Example 14, N-(4-Fluoro-2-(1H-1,2,4-triazol-1-yl)benzyl)-5-hydroxy-1-methyl-2-(1-(2-(methylthio)-ethoxy)cyclobutyl)-6-oxo-1,6-dihydropyrimidine-4-carboxamide] | 7.00 to 8.70
15 | Cn1c(C2(C)CCCS2)nc(C(=O)NCc2ccc(F)cc2-n2cncn2)c(O)c1=O (stereo not drawn) [Example 7, N-(4-Fluoro-2-(1H-1,2,4-triazol-1-yl)benzyl)-5-hydroxy-1-methyl-2-(2-methyl-tetrahydrothiophen-2-yl)-6-oxo-1,6-dihydropyrimidine-4-carboxamide] | 7.00 to 8.70
16 | Cn1c(C2(C)CCCS2)nc(C(=O)NCc2ccc(F)cc2)c(O)c1=O (stereo not drawn) [Example 6, N-(4-Fluorobenzyl)-5-hydroxy-1-methyl-2-(2-methyl-tetrahydrothiophen-2-yl)-6-oxo-1,6-dihydropyrimidine-4-carboxamide] | 7.00 to 8.70
17 | COCCOC1(c2nc(C(=O)NCc3ccc(F)cc3S(C)(=O)=O)c(O)c(=O)n2C)CCC1 [Example 17, N-(4-Fluoro-2-(methylsulfonyl)benzyl)-5-hydroxy-2-(1-(2-methoxyethoxy)cyclobutyl)-1-methyl-6-oxo-1,6-dihydropyrimidine-4-carboxamide] | 7.00 to 8.70
18 | Cn1c(C2(OCCO)CCC2)nc(C(=O)NCc2ccc(F)cc2-n2cncn2)c(O)c1=O [Example 13] | 7.00 to 8.70
